Measurements published in patent US4366143A, “Assay for the free portion of substances in biological fluids” (Amersham International Public Limited Company, priority 1979, dated 1982).

Columns and labels:
[1] = test system: plasma proteins such as sex hormone binding globulin and albumin; conditions: cited from earlier work
transcortin and albumin = conditions: cited from earlier work
[2] = test system: solid phase T4 specific antibody; assay: Binding of labelled T4 derivatives to solid phase T4 antibody with and without thiomersal (Example 7); set-up: species or system sheep; conditions: 125I-labelled T4 derivative
Description: (§1) The dominant binding protein for T4 in serum is TBG, and the binding site for T4 on this protein may be blocked by adding an appropriate concentration of thiomersalate to the buffer.
(§2) The labelled T4 derivative was dissolved in 0.01 molar phosphate, pH 7.4 containing 0.9% sodium chloride and 0.1% gelatin to give a radioactive concentration of approximately 0.05 microcuries per milliliter. In the part of the experiment where the blocking agent was used, this buffer contained 1.8% thiomersal.
(§3) A solid phase T4 specific antibody was used that consisted of a pre-precipitated double antibody complex made by reacting sheep anti-T4 serum and donkey anti-rabbit gamma globulin serum in the abovementioned phosphate buffer. A concentration of this solid phase T4 antibody suspension was chosen that bound approximately 50% of ^125 I-T4 tracer in the presence of blocking agent under the experimental conditions used.
(§4) The binding of the labelled T4 derivatives was tested as follows:
(§5) 50 μl human serum (depleted of T4 by resin extraction)
(§6) 500 μl labelled T4 derivative (with or without blocking agent)
(§7) 1.0 ml solid phase T4 antibody suspension
(§8) Tubes were incubated for 2 hours at 37° C. and then centrifuged to settle the solid phase antibody. The supernatant solution was decanted and the radioactivity in the solid phase measured.

TBG [3] = target: T1, TBG (Homo sapiens, UniProt P05543); assay: Binding of T4 derivatives to TBG, from antibody binding in presence and absence of blocking agent (Example 7)
T1 sequence (P05543 21-415): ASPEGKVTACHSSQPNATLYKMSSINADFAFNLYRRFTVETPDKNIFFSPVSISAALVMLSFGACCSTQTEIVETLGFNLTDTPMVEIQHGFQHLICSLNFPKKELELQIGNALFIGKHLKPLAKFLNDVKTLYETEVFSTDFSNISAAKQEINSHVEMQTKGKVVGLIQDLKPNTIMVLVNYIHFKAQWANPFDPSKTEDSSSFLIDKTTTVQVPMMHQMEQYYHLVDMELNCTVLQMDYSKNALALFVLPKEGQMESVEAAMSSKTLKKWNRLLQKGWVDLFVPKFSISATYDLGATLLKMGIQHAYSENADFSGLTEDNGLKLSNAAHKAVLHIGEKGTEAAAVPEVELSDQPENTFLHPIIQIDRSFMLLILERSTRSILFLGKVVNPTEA
Description: as §1, §2, §3, §4, §5, §6, §7, §8
The right-hand column of the above table sets out the ratio of the figures in the two other columns. As a rule of thumb, it may be said that this ratio should be at least 0.6, preferably at least 0.9 for the compound tested to be worth considering for use in the free T4 assay. It should be noted, however, that these figures are valid only for the free T4 assay and not necessarily for other free ligand assays.

[4] = test system: sex hormone binding globulin (SHBG); conditions: cited from earlier work
transcortin = target: T2, transcortin (Homo sapiens, UniProt P08185); assay: Binding of cortisol tracers to serum proteins / transcortin with and without ANS (Example 4); conditions: for % Tracer Bound to Serum Proteins (Corrected for Non-Specific Binding): charcoal extracted human serum
T2 construct: charcoal extracted human serum; from tissue; host or cells: human serum, charcoal extracted (unpurified)
T2 sequence (P08185 23-405): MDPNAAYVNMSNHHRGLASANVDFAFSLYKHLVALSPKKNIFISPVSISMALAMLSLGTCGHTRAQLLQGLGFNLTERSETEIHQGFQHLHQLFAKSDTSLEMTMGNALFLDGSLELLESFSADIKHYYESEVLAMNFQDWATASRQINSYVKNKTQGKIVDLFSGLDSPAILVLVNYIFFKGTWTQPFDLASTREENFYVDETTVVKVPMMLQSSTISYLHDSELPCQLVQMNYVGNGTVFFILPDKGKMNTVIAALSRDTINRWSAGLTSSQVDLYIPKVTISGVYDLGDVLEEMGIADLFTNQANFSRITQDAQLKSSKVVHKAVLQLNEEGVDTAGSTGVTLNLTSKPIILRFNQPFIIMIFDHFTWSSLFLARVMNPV
Description: The protocol was as follows:
B. 200 μl buffer (containing either 0 or 600 μg of 8-anilinonaphthalene sulphonic acid (ANS) as a cortisol binding site blocking agent).
A mixture of A and B was incubated at 37° C. for one hour. […] The reaction tubes were mixed for one hour at room temperature. A 0.5 ml aliquot of the supernatant was then removed for counting.

[5] = test system: thyroxine binding globulin (TBG), thyroxine binding pre-albumin (TBPA) and albumin (Alb); conditions: blood serum or plasma; cited from earlier work
TBG [6] = target: T1, TBG; conditions: blood stream of human beings; cited from earlier work
TBPA [7] = conditions: blood stream of human beings; cited from earlier work
Albumin = conditions: blood stream of human beings; cited from earlier work
antibodies = conditions: cited from earlier work
TBG [8] = conditions: cited from earlier work
TBPA [9] = conditions: cited from earlier work
sheep-anti-T4 serum = assay: Free T4 assay, tracer N-acetyl-thyroxine-methyl ester bound to sheep anti-T4 serum (standard curve, Example 1); type: binding
Excerpt: The labelled derivative of the ligand was N-acetyl-thyroxine-methyl ester, labelled by iodine-125 exchange using sodium iodide-I^125 and chloramine-T. The specific activity was 1500 millicuries per milligram. The tractor concentration was 90 picomolar.
The specific binder was a solution of sheep-anti-T4 serum raised against thyroxine methyl ester coupled to bovine serum albumin by carbodiimide. The final dilution was 1/60,000 in buffer.
The buffer contained 13.6 g/l KH2 PO4, 9.0 g/l NaCl, 0.07 g/l NaN3 and 1.0 g/l gelatin.
50 micro-liters of a serum sample was mixed with 200 micro-liters of the radioactive ligand derivative solution and 200 micro-liters of specific binder solution and the mixture incubated at room temperature for one hour. Then 1 milli-liter of polyethyleneglycol solution (20%) was added, and the reaction mixture centrifuged. The supernatant liquid was decanted and the radioactivity of the precipitate was measured.

[10] = test system: T4-binding reagent (pre-precipitated double antibody complex, sheep anti-T4 serum); assay: Free T4 assay using N-acetyl-thyroxine-dimethylamide, tracer bound to T4-binding reagent (Example 6)
Excerpt: The labelled derivative of the ligand was N-acetyl-thyroxine-dimethylamide,labelled by iodine-125 exchange using sodium iodide I^125 and chloromine-T. The specific activity was 1000 millicuries per milligram. The tracer concentration was 0.5 μCi/ml.
The specific binder was a pre-precipitated double antibody complex made from sheep anti-T4 serum and donkey anti-rabbit γ globulin serum. This reagent is referred to as the T4-binding reagent.
The buffer was 0.01 molar phosphate, pH 7.4, containing 9.0 g/l NaCl, 1.0 g/l NaN3 and 1.0 g/l gelatin. 50 micro-liters of a serum sample or standard was mixed with 500 micro-liters of the tracer solution and 1000 micro-liters of the T4-binding reagent. The mixture was incubated for 2 hours at 37° C., centrifuged, decanted, and drained. The radioactivity of the precipitate was measured.

| SMILES | % of T4 derivative bound to antibody ([2]; Thiomersal absent) | % of T4 derivative bound to antibody ([2]; Thiomersal present) | Ratio (% bound to antibody, thiomersal absent / present) (TBG [3]) | binding to TBG (in words) (TBG [3]) | suitability of TBG binding reduction for free-T4 assay (in words) (TBG [3]) | further results |
| --- | --- | --- | --- | --- | --- | --- |
| CC(=O)[C@H]1CC[C@H]2[C@@H]3CCC4=CC(=O)CC[C@]4(C)[C@H]3CC[C@]12C [progesterone] | – | – | – | – | – | proportion bound to plasma proteins [1]: > 90% |
| C[C@]12CCC(=O)C=C1CC[C@@H]1[C@@H]2[C@@H](O)C[C@@]2(C)[C@H]1CC[C@]2(O)C(=O)CO [cortisol] | – | – | – | – | – | cortisol in free form in blood plasma (transcortin and albumin): ~8% |
| CC(=O)N[C@@H](Cc1cc(I)c(Oc2cc(I)c(O)c(I)c2)c(I)c1)C(=O)N(C)C [L-T4/M, N-Acetyl-L-T4-dimethylamide] | 50% | 50% | 1.00 | appears to have minimal binding to TBG | sufficiently reduced binding to TBG for use in the free-T4 assay | – |
| C[C@]12CC[C@@H]3c4ccc(O)cc4CC[C@H]3[C@@H]1CC[C@@H]2O [oestradiol] | – | – | – | – | – | binding to SHBG (in words) [4]: bind strongly |
| CC(=O)N[C@@H](Cc1cc(I)c(Oc2cc(I)c(O)c(I)c2)c(I)c1)C(=O)O [L-T4/F, N-Acetyl-L-T4] | 22% | 52% | 0.42 | bound to TBG to about the same extent as D-T4 | not reduced enough for consideration as a T4 derivative for a free-T4 assay | – |
| CCNC(=O)[C@H](Cc1cc(I)c(Oc2cc(I)c(O)c(I)c2)c(I)c1)NC(C)=O [L-T4/L, N-Acetyl-L-T4-monoethylamide] | 21% | 60% | 0.35 | bound to TBG to about the same extent as D-T4 | not reduced enough for consideration as a T4 derivative for a free-T4 assay | – |
| C[C@]12CCC(=O)C=C1CC[C@@H]1[C@@H]2[C@@H](O)C[C@@]2(C)[C@H]1CC[C@]2(O)C(=O)CO [Cortisol (H^3), Cortisol, reference compound] | – | – | – | – | – | binding to transcortin (in words) (transcortin): binds strongly to transcortin; % Tracer Bound to Serum Proteins (Corrected for Non-Specific Binding) (transcortin; ANS 0 μg/tube): 28%; % Tracer Bound to Serum Proteins (Corrected for Non-Specific Binding) (transcortin; ANS 600 μg/tube): 3.5%; displacement from transcortin by ANS blocking agent (in words) (transcortin; high concentrations of ANS): displaced at high concentrations of the ANS blocking agent |
| N[C@@H](Cc1cc(I)c(Oc2cc(I)c(O)c(I)c2)c(I)c1)C(=O)O [L-T4, thyroxine, reference compound] | 12% | 50% | 0.24 | bound appreciably by TBG | – | bound to naturally occurring binding proteins [5]: approximately 99.98%; percentage of T4 bound to TBG (TBG [6]): approximately 70%; percentage of T4 bound to TBPA (TBPA [7]): 20-25%; percentage of T4 bound to Albumin (Albumin): 5-10% |
| N[C@H](Cc1cc(I)c(Oc2cc(I)c(O)c(I)c2)c(I)c1)C(=O)O [D-T4, D-Thyroxine] | 24% | 50% | 0.48 | bound less by TBG | not reduced enough for consideration as a T4 derivative for a free-T4 assay | binding to antibodies relative to L-Thyroxine / T4 (in words) (antibodies): binds as strongly to antibodies as does the naturally occurring L-Thyroxine; binding to TBG relative to L-Thyroxine / T4 (in words) (TBG [8]): substantially less than that of L-Thyroxine; binding to TBPA relative to L-Thyroxine / T4 (in words) (TBPA [9]): substantially less than that of L-Thyroxine |
| COC(=O)[C@H](Cc1cc(I)c(Oc2cc(I)c(O)c(I)c2)c(I)c1)NC(C)=O [N-acetyl-thyroxine-methyl ester] | – | – | – | – | – | % Radioactivity in Solid Phase (sheep-anti-T4 serum; Free T4 0.0 ng/dl): 58%; % Radioactivity in Solid Phase (sheep-anti-T4 serum; Free T4 0.2 ng/dl): 55%; % Radioactivity in Solid Phase (sheep-anti-T4 serum; Free T4 1.0 ng/dl): 47%; % Radioactivity in Solid Phase (sheep-anti-T4 serum; Free T4 3.0 ng/dl): 34%; % Radioactivity in Solid Phase (sheep-anti-T4 serum; Free T4 5.8 ng/dl): 22% |
| CC(=O)N[C@@H](Cc1cc(I)c(Oc2cc(I)c(O)c(I)c2)c(I)c1)C(=O)N(C)C [N-acetyl-thyroxine-dimethylamide] | – | – | – | – | – | % Radioactivity in Solid Phase ([10]; Free T4 0 ng/dl, mean of duplicate tubes): 38%; % Radioactivity in Solid Phase ([10]; Free T4 0.18 ng/dl, mean of duplicate tubes): 22%; % Radioactivity in Solid Phase ([10]; Free T4 0.9 ng/dl, mean of duplicate tubes): 11%; % Radioactivity in Solid Phase ([10]; Free T4 3.0 ng/dl, mean of duplicate tubes): 6.0%; % Radioactivity in Solid Phase ([10]; Free T4 5.7 ng/dl, mean of duplicate tubes): 3.6%; % Radioactivity in Solid Phase ([10]; non-pregnant euthyroid control): 7.1%; % Radioactivity in Solid Phase ([10]; pregnant euthyroid control): 6.8% |
| COC(=O)[C@@H](Cc1cc(I)c(Oc2cc(I)c(O)c(I)c2)c(I)c1)NC(C)=O [D-T4/A, N-Acetyl D-T4-methylester] | 38% | 38% | 1.00 | appears to decrease this binding to TBG even further | sufficiently reduced binding to TBG for use in the free-T4 assay | – |
| C[C@]12CC[C@H]3[C@@H](CCC4=CC(=O)CC[C@@]43C)[C@@H]1CC[C@@H]2O (stereo in doubt) [testosterone] | – | – | – | – | – | binding to SHBG (in words) [4]: bind strongly; proportion bound to plasma proteins [1]: > 90% |
| COC(=O)[C@H](Cc1cc(I)c(Oc2cc(I)c(O)c(I)c2)c(I)c1)NC(C)=O [L-T4/A, N-Acetyl-L-T4-methylester] | 36% | 40% | 0.90 | appears to bind much less strongly to TBG than does L-T4 | sufficiently reduced binding to TBG for use in the free-T4 assay | – |
